Test results reported in PubChem BioAssay (NCI).
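GI50 = concentration required for 50% inhibition of growth. TGI marks complete inhibition of growth.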

Assays:
Test in all cases: inhibition of tumour cell growth, NCI panel, 384-well format
786-0 renal = test system: 786-0 renal
PC-3 prostate = test system: PC-3 prostate
ACHN renal = test system: ACHN renal
MDA-MB-231 breast = test system: MDA-MB-231 breast
OVCAR-5 ovarian = test system: OVCAR-5 ovarian
HS 578T breast = test system: HS 578T breast
HL-60(TB) leukemia = test system: HL-60(TB) leukemia
NCI-H522 lung = test system: NCI-H522 lung
SF-295 CNS = test system: SF-295 CNS
T-47D breast = test system: T-47D breast
MALME-3M melanoma = test system: MALME-3M melanoma
MDA-MB-468 breast = test system: MDA-MB-468 breast
SF-268 CNS = test system: SF-268 CNS

Cc1cc(Nc2cc(N)ncn2)c(=O)n2c1C(=O)NC21CCCCC1
GI50 (786-0 renal): > 100 µM | TGI (786-0 renal): > 100 µM | GI50 (PC-3 prostate): > 100 µM | TGI (PC-3 prostate): > 100 µM | GI50 (ACHN renal): > 100 µM | TGI (ACHN renal): > 100 µM | GI50 (MDA-MB-231 breast): > 100 µM | TGI (MDA-MB-231 breast): > 100 µM | GI50 (OVCAR-5 ovarian): > 100 µM | TGI (OVCAR-5 ovarian): > 100 µM | GI50 (HS 578T breast): > 100 µM | TGI (HS 578T breast): > 100 µM | GI50 (HL-60(TB) leukemia): > 100 µM | TGI (HL-60(TB) leukemia): > 100 µM | GI50 (NCI-H522 lung): > 100 µM | TGI (NCI-H522 lung): > 100 µM | GI50 (SF-295 CNS): > 100 µM | TGI (SF-295 CNS): > 100 µM | GI50 (T-47D breast): > 100 µM | TGI (T-47D breast): > 100 µM | GI50 (MALME-3M melanoma): > 100 µM | TGI (MALME-3M melanoma): > 100 µM | GI50 (MDA-MB-468 breast): > 100 µM | TGI (MDA-MB-468 breast): > 100 µM | GI50 (SF-268 CNS): > 100 µM | TGI (SF-268 CNS): > 100 µM
